Experimental data reported in patent publication US6335339B1, “Triazine antiviral compounds” (Scriptgen Pharmaceuticals, Inc., priority 1998, dated 2002).

Assay: neutral red dye uptake cytotoxicity
Type: cell-based
Details: human, 2.2.15 cells (confluent cultures), 9 days treatment, read-out: 50% Cell Death CC50
In short: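 Confluent 2.2.15 cultures, same conditions as antiviral assay, treated daily for 9 days with 4 concentrations (3.3-fold dilutions), triplicate wells. 24 hours after the final dose, cells stained 30 minutes with 0.01% neutral red, dye extracted and A510 read; values as % of untreated cultures, CC50 as 50% cell death.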

With `CC(C)(C)Nc1nc(NCc2ccccc2)nc(N/N=C/c2ccccc2F)n1` [Compound 93, 2-fluorobenzaldehyde N-[4-(benzylamino)-6-(tert-butylamino)-1,3,5-triazin-2-yl]hydrazone] as the compound, how does the CC50 at 9 days read?
The CC50 at 9 days was 54 µM.
